Experimental data reported in ChEMBL document CHEMBL5352481, “Discovery of small-molecule protein stabilizers toward exogenous alpha-l-iduronidase to reduce the accumulated heparan sulfate in mucopolysaccharidosis type I cells” (Eur J Med Chem, 2023).
Active and inactive are the calls of the source. The calls are words filed in the database; no cut-off is given here.

Assays:
Alpha-L-iduronidase [1] = target: T1, Alpha-L-iduronidase (Homo sapiens, UniProt P35475); assay: Inhibition of human recombinant alpha-L-iduronidase using 4-methylumbelliferyl-alpha-iduronide as fluorogenic substrate
T1 sequence (P35475 whole entry): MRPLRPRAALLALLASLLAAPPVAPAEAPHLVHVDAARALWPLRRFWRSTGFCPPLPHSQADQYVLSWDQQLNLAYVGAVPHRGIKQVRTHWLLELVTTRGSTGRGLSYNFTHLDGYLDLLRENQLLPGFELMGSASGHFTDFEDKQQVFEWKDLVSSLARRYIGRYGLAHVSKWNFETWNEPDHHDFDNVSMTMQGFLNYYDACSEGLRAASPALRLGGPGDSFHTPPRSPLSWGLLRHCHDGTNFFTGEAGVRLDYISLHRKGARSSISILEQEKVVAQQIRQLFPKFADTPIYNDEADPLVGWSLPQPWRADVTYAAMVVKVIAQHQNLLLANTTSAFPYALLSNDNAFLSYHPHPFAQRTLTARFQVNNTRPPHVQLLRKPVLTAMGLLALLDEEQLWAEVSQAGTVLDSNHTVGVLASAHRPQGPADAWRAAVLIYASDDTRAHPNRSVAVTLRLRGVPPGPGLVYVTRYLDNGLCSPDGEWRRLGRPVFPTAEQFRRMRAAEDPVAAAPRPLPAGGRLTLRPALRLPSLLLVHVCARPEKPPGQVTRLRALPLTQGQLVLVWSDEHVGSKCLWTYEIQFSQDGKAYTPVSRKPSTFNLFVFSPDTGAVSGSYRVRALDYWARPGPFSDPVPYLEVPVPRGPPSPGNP

[2] = target: T2, Alpha-L-iduronidase (Homo sapiens) (UniProt P35475); assay: Stabilization of human recombinant alpha-L-iduronidase in human GM01391 cells assessed as increase in IDUA activity at 100 uM incubated for 1 day followed by 1 day washout; assay type: cell-based
T2 sequence (whole entry): T1 sequence (P35475 whole entry)

[3] = target: T2, Alpha-L-iduronidase (Homo sapiens); assay: Inhibition of human recombinant alpha-L-iduronidase using 4-methylumbelliferyl-alpha-iduronide as fluorogenic substrate at 250 uM relative to control
[4] = target: T2, Alpha-L-iduronidase (Homo sapiens); assay: Stabilization of human recombinant alpha-L-iduronidase in human GM01391 cells assessed as fold increase in IDUA activity at 100 uM incubated for 1 day followed by 1 day washout relative to control; assay type: cell-based
Alpha-L-iduronidase [5] = target: T1, Alpha-L-iduronidase; assay: Inhibition of alpha-L-iduronidase (unknown origin) assessed as inhibition constant
[6] = target: T2, Alpha-L-iduronidase (Homo sapiens); assay: Stabilization of human recombinant alpha-L-iduronidase in human GM01391 cells assessed as fold increase in IDUA activity at 500 uM measured after 9 days relative to control; assay type: cell-based; conditions: time 9.0 day
Alpha-L-iduronidase [7] = target: T1, Alpha-L-iduronidase; assay: Inhibition of human recombinant alpha-L-iduronidase using 4-methylumbelliferyl-alpha-iduronide as fluorogenic substrate assessed as inhibition constant by Lineweaver-Burk plot analysis
[8] = target: T2, Alpha-L-iduronidase (Homo sapiens); assay: Stabilization of human recombinant alpha-L-iduronidase in human GM02846 cells assessed as reduction in heparan sulfate level at 10 to 500 uM incubated for 1 day followed by 1 day washout; assay type: cell-based; conditions: dose 10-500 µM
[9] = target: T2, Alpha-L-iduronidase (Homo sapiens); assay: Stabilization of human recombinant alpha-L-iduronidase in human GM01391 cells assessed as fold increase in IDUA activity at 500 uM incubated for 1 day followed by 1 day washout relative to control; assay type: cell-based
[10] = target: T2, Alpha-L-iduronidase (Homo sapiens); assay: Stabilization of human recombinant alpha-L-iduronidase in human GM02846 cells assessed as increase in IDUA activity incubated for 1 day followed by 1 day washout; assay type: cell-based; conditions: dose 10-500 µM
[11] = target: T2, Alpha-L-iduronidase (Homo sapiens); assay: Stabilization of human recombinant alpha-L-iduronidase in human GM01391 cells assessed as reduction in heparan sulfate level at 500 uM incubated for 1 day followed by 1 day washout; assay type: cell-based
Alpha-L-iduronidase [12] = target: T1, Alpha-L-iduronidase; assay: Inhibition of human alpha-L-iduronidase using 4-methylumbelliferyl-alpha-L-iduronide as substrate assessed as inhibition constant
[13] = target: T2, Alpha-L-iduronidase (Homo sapiens); assay: Inhibition of human recombinant alpha-L-iduronidase using 4-methylumbelliferyl-alpha-L-iduronide as fluorogenic substrate at 0.1 mM relative to control
Alpha-L-iduronidase [14] = target: T1, Alpha-L-iduronidase; assay: Inhibition of human seminal fluid alpha-L-iduronidase using 4-methylumbelliferyl-alpha-L-idosiduronic acid as substrate incubated for 1 hr by fluorescence based assay

Row | IC50 (Alpha-L-iduronidase [1]) [µM] | Activity [2] | inhibition [3] [%] | Structure (SMILES) | further results
1 | 5.4 | Active |  | O=C(Cc1ccc(OP(=O)(O)O)cc1)NCC[C@@H]1O[C@@H](C(=O)O)[C@@H](O)[C@H](O)[C@H]1O | 
2 |  | inactive | < 10 | O=C(Cc1ccc(OP(=O)(O)O)cc1)NCC[C@@H]1N[C@@H](C(=O)O)[C@@H](O)[C@H](O)[C@H]1O | 
3 | 4 |  |  | O=C(Cc1cccc(OP(=O)(O)O)c1)NCC[C@@H]1O[C@@H](C(=O)O)[C@@H](O)[C@H](O)[C@H]1O | fold change (FC) [4]: 1.6
4 |  |  |  | O=C(O)[C@]1(F)O[C@@H](F)[C@H](O)[C@@H](O)[C@@H]1O | Ki (Alpha-L-iduronidase [5]): 1.2 µM
5 | 6.7 |  |  | NCC[C@@H]1O[C@@H](C(=O)O)[C@@H](O)[C@H](O)[C@H]1O | fold change (FC) [6]: > 1.6; Ki (Alpha-L-iduronidase [7]): 4 µM; Activity [8]: Active; fold change (FC) [4]: 1.4; fold change (FC) [9]: 3; Activity [10]: Dose-Dependent Effect; Activity [11]: Active
6 | 1 | inactive |  | O=C(Cc1ccccc1OP(=O)(O)O)NCC[C@@H]1O[C@@H](C(=O)O)[C@@H](O)[C@H](O)[C@H]1O | 
7 |  |  |  | O=C1N[C@@H](C(=O)O)[C@@H](O)[C@H](O)[C@H]1O | Ki (Alpha-L-iduronidase [12]): 94 µM
8 |  | inactive | < 10 | NCC[C@@H]1N[C@@H](C(=O)O)[C@@H](O)[C@H](O)[C@H]1O | 
9 |  |  |  | O=C(O)[C@H]1[C@@H](O)[C@H](O)[C@@H](O)c2nnnn21 | Ki (Alpha-L-iduronidase [12]): 1300 µM
10 |  | inactive | < 10 | O=C(Cc1cccc(OP(=O)(O)O)c1)NCC[C@@H]1N[C@@H](C(=O)O)[C@@H](O)[C@H](O)[C@H]1O | 
11 |  |  |  | O=C(/C=C/c1ccccc1)NCc1cn([C@@H]2O[C@@H](C(=O)O)[C@@H](O)[C@H](O)[C@H]2O)nn1 | inhibition [13]: 74%
12 |  | inactive | 43 | O=C(Cc1ccccc1OP(=O)(O)O)NCC[C@@H]1N[C@@H](C(=O)O)[C@@H](O)[C@H](O)[C@H]1O | 
13 |  |  |  | O=C1O[C@H]([C@@H](O)C(=O)O)[C@H](O)[C@H]1O | IC50 (Alpha-L-iduronidase [14]): 40 µM
